{"source": "ChEMBL document CHEMBL3991601", "about": "“The target landscape of clinical kinase drugs” (Science, 2017)", "note": "Active and inactive are the calls of the source. Rule as the data show it, for most assays here: actives have a measured Kd and inactives only a lower limit. Also: in the data inactive means no Kd found up to 30 µM.", "data": [{"target": "T1, Membrane-associated tyrosine- and threonine-specific cdc2-inhibitory kinase (Homo sapiens, UniProt Q99640)", "T1 sequence (Q99640 whole entry)": "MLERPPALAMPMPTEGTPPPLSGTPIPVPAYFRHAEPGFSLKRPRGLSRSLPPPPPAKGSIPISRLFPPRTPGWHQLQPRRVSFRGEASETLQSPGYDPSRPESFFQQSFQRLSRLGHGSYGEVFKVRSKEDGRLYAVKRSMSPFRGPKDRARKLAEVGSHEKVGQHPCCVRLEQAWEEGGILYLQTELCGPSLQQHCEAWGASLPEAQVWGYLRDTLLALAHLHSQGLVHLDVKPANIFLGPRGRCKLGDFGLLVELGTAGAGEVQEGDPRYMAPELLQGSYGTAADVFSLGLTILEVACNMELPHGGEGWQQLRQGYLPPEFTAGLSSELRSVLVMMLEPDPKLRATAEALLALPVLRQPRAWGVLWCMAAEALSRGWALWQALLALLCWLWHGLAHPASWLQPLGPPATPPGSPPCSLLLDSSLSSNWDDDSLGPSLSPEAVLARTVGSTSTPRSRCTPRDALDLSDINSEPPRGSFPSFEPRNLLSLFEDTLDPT", "values": [{"smiles": "Cc1cc(Nc2cc(N3CCN(C)CC3)nc(/C=C/c3ccccc3)n2)n[nH]1", "note": "[ENMD-2076]", "Kd": "> 30 µM (inactive)"}, {"smiles": "COC(=O)[C@@]1(O)C[C@H]2O[C@]1(C)n1c3ccccc3c3c4c(c5c6ccccc6n2c5c31)C(=O)NC4", "note": "[K-252A]", "Kd": "> 30 µM (inactive)"}, {"smiles": "Cn1cc(-c2ccc(F)c(C(F)(F)F)c2)nc1C1CCN(c2ncnc3[nH]ncc23)CC1", "note": "[LY-2584702]", "Kd": "> 30 µM (inactive)"}, {"smiles": "O=C(O)[C@]1(Cc2cccc(Nc3nccs3)n2)CC[C@@H](Oc2cccc(Cl)c2F)CC1", "note": "[MK-5108]", "Kd": "> 30 µM (inactive)"}]}, {"target": "T2, Calcium/calmodulin-dependent protein kinase type IV (Homo sapiens, UniProt Q16566)", "T2 sequence (Q16566 whole entry)": "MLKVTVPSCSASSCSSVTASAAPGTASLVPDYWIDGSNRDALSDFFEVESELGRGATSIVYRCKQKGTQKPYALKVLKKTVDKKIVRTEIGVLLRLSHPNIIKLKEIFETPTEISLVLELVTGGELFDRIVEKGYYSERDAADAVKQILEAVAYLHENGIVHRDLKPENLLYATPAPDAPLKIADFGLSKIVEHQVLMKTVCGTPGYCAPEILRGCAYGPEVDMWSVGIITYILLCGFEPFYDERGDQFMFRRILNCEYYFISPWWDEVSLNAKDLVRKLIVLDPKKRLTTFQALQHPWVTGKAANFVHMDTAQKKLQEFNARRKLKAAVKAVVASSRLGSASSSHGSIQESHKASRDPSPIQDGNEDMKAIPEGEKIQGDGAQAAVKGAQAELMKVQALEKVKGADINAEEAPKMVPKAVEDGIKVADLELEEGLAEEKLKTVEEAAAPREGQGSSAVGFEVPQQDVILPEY", "values": [{"smiles": "Cc1cc(Nc2cc(N3CCN(C)CC3)nc(/C=C/c3ccccc3)n2)n[nH]1", "note": "[ENMD-2076]", "Kd": "> 30 µM (inactive)"}, {"smiles": "COC(=O)[C@@]1(O)C[C@H]2O[C@]1(C)n1c3ccccc3c3c4c(c5c6ccccc6n2c5c31)C(=O)NC4", "note": "[K-252A]", "Kd": "> 30 µM (inactive)"}, {"smiles": "Cn1cc(-c2ccc(F)c(C(F)(F)F)c2)nc1C1CCN(c2ncnc3[nH]ncc23)CC1", "note": "[LY-2584702]", "Kd": "> 30 µM (inactive)"}, {"smiles": "O=C(O)[C@]1(Cc2cccc(Nc3nccs3)n2)CC[C@@H](Oc2cccc(Cl)c2F)CC1", "note": "[MK-5108]", "Kd": "> 30 µM (inactive)"}]}, {"target": "Cyclin-dependent kinase 5 (Homo sapiens, UniProt Q00535)", "values": [{"smiles": "COC(=O)[C@@]1(O)C[C@H]2O[C@]1(C)n1c3ccccc3c3c4c(c5c6ccccc6n2c5c31)C(=O)NC4", "note": "[K-252A]", "Kd": "0.911 µM (active)"}, {"smiles": "Cn1cc(-c2ccc(F)c(C(F)(F)F)c2)nc1C1CCN(c2ncnc3[nH]ncc23)CC1", "note": "[LY-2584702]", "Kd": "> 30 µM (inactive)"}, {"smiles": "O=C(O)[C@]1(Cc2cccc(Nc3nccs3)n2)CC[C@@H](Oc2cccc(Cl)c2F)CC1", "note": "[MK-5108]", "Kd": "> 30 µM (inactive)"}]}, {"target": "Aurora kinase B (Homo sapiens, UniProt Q96GD4)", "values": [{"smiles": "COC(=O)[C@@]1(O)C[C@H]2O[C@]1(C)n1c3ccccc3c3c4c(c5c6ccccc6n2c5c31)C(=O)NC4", "note": "[K-252A]", "Kd": "0.353 µM (active)"}, {"smiles": "Cn1cc(-c2ccc(F)c(C(F)(F)F)c2)nc1C1CCN(c2ncnc3[nH]ncc23)CC1", "note": "[LY-2584702]", "Kd": "> 30 µM (inactive)"}]}, {"target": "T3, Very long-chain specific acyl-CoA dehydrogenase, mitochondrial (Homo sapiens, UniProt P49748)", "T3 sequence (P49748 whole entry)": "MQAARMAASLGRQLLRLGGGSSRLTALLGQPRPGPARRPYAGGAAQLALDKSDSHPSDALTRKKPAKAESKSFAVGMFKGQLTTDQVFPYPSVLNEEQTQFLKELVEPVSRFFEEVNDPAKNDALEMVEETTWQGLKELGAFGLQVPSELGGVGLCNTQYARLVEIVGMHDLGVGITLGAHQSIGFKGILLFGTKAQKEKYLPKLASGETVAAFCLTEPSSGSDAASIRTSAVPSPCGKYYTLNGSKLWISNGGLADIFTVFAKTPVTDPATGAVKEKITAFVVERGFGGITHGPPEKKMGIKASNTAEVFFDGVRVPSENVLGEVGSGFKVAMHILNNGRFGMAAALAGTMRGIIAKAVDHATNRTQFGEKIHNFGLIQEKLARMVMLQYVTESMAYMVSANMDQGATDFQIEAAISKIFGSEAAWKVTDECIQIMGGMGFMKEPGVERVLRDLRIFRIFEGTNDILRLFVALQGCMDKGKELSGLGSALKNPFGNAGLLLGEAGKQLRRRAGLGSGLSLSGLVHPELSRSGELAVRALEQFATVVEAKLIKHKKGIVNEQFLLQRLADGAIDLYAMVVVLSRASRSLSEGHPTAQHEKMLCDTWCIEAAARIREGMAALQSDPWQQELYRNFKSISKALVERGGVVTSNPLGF", "values": [{"smiles": "Cc1cc(Nc2cc(N3CCN(C)CC3)nc(/C=C/c3ccccc3)n2)n[nH]1", "note": "[ENMD-2076]", "Kd": "> 30 µM (inactive)"}, {"smiles": "COC(=O)[C@@]1(O)C[C@H]2O[C@]1(C)n1c3ccccc3c3c4c(c5c6ccccc6n2c5c31)C(=O)NC4", "note": "[K-252A]", "Kd": "> 30 µM (inactive)"}, {"smiles": "Cn1cc(-c2ccc(F)c(C(F)(F)F)c2)nc1C1CCN(c2ncnc3[nH]ncc23)CC1", "note": "[LY-2584702]", "Kd": "> 30 µM (inactive)"}, {"smiles": "O=C(O)[C@]1(Cc2cccc(Nc3nccs3)n2)CC[C@@H](Oc2cccc(Cl)c2F)CC1", "note": "[MK-5108]", "Kd": "> 30 µM (inactive)"}]}, {"target": "Ribosomal protein S6 kinase alpha-1 (Homo sapiens, UniProt Q15418)", "sequence (Q15418 whole entry)": "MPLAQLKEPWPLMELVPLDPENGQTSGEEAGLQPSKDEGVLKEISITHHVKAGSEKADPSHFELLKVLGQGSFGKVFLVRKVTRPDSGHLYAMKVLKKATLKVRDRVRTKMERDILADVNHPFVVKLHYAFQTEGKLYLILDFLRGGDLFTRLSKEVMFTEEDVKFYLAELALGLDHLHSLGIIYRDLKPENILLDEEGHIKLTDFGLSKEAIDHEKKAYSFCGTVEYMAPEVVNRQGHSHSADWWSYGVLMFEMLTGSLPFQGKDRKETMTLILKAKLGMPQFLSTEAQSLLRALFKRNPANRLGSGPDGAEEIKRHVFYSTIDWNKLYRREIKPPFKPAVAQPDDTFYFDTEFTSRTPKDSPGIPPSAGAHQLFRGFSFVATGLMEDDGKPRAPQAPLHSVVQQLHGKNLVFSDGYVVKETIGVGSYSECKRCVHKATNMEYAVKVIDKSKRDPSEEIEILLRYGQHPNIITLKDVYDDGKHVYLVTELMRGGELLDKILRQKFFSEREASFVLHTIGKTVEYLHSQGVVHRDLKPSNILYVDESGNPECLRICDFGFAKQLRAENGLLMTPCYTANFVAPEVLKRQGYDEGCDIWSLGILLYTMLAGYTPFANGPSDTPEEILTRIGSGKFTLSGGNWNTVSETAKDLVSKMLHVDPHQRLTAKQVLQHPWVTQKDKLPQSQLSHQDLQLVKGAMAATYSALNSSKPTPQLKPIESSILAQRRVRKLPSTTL", "values": [{"smiles": "Cc1cc(Nc2cc(N3CCN(C)CC3)nc(/C=C/c3ccccc3)n2)n[nH]1", "note": "[ENMD-2076]", "Kd": "> 30 µM (inactive)"}, {"smiles": "COC(=O)[C@@]1(O)C[C@H]2O[C@]1(C)n1c3ccccc3c3c4c(c5c6ccccc6n2c5c31)C(=O)NC4", "note": "[K-252A]", "Kd": "2.99 µM (active)"}, {"smiles": "Cn1cc(-c2ccc(F)c(C(F)(F)F)c2)nc1C1CCN(c2ncnc3[nH]ncc23)CC1", "note": "[LY-2584702]", "Kd": "> 30 µM (inactive)"}, {"smiles": "O=C(O)[C@]1(Cc2cccc(Nc3nccs3)n2)CC[C@@H](Oc2cccc(Cl)c2F)CC1", "note": "[MK-5108]", "Kd": "> 30 µM (inactive)"}]}, {"target": "Serine/threonine-protein kinase 10 (Homo sapiens, UniProt O94804)", "sequence (O94804 whole entry)": "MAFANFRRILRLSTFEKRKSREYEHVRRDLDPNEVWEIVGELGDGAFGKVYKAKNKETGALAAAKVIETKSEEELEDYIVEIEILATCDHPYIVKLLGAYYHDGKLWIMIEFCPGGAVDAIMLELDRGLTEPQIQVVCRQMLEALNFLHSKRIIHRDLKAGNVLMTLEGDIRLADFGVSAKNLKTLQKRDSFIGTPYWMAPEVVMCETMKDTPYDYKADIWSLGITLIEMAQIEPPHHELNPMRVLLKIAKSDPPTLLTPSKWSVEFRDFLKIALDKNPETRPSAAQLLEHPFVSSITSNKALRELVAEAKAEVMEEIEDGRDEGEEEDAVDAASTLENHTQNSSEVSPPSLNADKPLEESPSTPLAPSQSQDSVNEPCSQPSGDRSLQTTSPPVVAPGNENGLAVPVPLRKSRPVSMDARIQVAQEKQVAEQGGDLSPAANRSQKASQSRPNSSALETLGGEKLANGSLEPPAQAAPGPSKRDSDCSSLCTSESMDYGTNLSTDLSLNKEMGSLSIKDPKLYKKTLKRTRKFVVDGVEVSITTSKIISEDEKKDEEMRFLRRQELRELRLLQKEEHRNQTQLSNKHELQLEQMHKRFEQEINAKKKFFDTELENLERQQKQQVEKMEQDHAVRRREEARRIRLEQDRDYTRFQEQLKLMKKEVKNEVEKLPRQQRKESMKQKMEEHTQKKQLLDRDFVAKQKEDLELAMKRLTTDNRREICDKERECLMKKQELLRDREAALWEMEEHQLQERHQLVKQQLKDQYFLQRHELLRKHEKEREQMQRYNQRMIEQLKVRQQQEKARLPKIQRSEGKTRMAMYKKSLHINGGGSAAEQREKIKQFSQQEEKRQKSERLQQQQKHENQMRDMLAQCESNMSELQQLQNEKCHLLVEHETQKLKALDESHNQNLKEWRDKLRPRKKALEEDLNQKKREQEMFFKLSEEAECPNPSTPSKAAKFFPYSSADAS", "values": [{"smiles": "COC(=O)[C@@]1(O)C[C@H]2O[C@]1(C)n1c3ccccc3c3c4c(c5c6ccccc6n2c5c31)C(=O)NC4", "note": "[K-252A]", "Kd": "0.481 µM (active)"}, {"smiles": "Cn1cc(-c2ccc(F)c(C(F)(F)F)c2)nc1C1CCN(c2ncnc3[nH]ncc23)CC1", "note": "[LY-2584702]", "Kd": "> 30 µM (inactive)"}, {"smiles": "O=C(O)[C@]1(Cc2cccc(Nc3nccs3)n2)CC[C@@H](Oc2cccc(Cl)c2F)CC1", "note": "[MK-5108]", "Kd": "1.09 µM (active)"}]}, {"target": "Insulin receptor (Homo sapiens, UniProt P06213)", "sequence (P06213 28-758 limits assumed)": "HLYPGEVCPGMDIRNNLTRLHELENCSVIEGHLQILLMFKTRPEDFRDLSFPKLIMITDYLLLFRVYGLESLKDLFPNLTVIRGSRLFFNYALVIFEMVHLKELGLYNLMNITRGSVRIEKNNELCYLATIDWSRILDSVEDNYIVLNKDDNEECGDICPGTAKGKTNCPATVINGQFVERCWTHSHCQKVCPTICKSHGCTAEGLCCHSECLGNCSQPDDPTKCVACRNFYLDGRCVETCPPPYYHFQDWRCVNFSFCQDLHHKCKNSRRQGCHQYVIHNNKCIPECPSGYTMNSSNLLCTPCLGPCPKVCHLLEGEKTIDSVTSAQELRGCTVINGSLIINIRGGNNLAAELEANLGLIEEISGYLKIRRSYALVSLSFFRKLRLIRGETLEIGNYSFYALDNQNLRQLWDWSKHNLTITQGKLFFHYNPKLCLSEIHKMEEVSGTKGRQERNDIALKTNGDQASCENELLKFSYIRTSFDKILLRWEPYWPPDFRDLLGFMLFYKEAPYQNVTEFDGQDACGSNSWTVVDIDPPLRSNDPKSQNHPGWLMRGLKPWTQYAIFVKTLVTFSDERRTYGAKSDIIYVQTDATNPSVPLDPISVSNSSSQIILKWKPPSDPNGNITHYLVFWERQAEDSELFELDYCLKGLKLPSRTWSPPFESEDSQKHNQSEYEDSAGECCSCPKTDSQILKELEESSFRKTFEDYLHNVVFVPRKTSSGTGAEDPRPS", "sequence (P06213 763-1382 limits assumed)": "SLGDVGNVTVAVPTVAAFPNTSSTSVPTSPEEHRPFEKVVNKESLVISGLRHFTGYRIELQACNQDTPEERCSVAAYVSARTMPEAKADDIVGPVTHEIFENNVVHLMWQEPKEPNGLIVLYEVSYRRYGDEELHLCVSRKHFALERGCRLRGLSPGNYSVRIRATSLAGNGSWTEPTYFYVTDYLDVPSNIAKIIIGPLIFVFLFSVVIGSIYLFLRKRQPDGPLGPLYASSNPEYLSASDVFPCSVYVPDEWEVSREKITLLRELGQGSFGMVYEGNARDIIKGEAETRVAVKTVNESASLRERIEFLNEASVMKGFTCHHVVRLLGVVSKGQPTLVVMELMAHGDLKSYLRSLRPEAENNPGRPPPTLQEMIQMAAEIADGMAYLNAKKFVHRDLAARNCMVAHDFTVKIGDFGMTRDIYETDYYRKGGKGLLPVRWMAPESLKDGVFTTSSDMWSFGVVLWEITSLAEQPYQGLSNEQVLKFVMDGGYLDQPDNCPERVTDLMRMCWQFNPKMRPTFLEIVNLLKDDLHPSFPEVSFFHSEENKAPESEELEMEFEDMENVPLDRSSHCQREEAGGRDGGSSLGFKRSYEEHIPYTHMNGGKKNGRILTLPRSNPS", "values": [{"smiles": "COC(=O)[C@@]1(O)C[C@H]2O[C@]1(C)n1c3ccccc3c3c4c(c5c6ccccc6n2c5c31)C(=O)NC4", "note": "[K-252A]", "Kd": "> 30 µM (inactive)"}, {"smiles": "Cn1cc(-c2ccc(F)c(C(F)(F)F)c2)nc1C1CCN(c2ncnc3[nH]ncc23)CC1", "note": "[LY-2584702]", "Kd": "> 30 µM (inactive)"}, {"smiles": "O=C(O)[C@]1(Cc2cccc(Nc3nccs3)n2)CC[C@@H](Oc2cccc(Cl)c2F)CC1", "note": "[MK-5108]", "Kd": "> 30 µM (inactive)"}]}, {"target": "Cyclin-dependent kinase 7 (Homo sapiens, UniProt P50613)", "sequence (P50613 whole entry)": "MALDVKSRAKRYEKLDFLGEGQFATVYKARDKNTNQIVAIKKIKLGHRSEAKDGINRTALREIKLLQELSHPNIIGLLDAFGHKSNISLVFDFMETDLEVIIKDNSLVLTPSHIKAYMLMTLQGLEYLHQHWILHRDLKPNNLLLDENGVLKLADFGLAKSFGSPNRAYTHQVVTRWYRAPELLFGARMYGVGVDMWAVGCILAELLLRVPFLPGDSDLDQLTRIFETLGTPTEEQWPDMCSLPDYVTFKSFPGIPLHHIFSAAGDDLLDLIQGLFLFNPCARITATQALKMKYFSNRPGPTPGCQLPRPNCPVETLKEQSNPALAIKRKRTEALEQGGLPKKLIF", "values": [{"smiles": "COC(=O)[C@@]1(O)C[C@H]2O[C@]1(C)n1c3ccccc3c3c4c(c5c6ccccc6n2c5c31)C(=O)NC4", "note": "[K-252A]", "Kd": "> 30 µM (inactive)"}, {"smiles": "Cn1cc(-c2ccc(F)c(C(F)(F)F)c2)nc1C1CCN(c2ncnc3[nH]ncc23)CC1", "note": "[LY-2584702]", "Kd": "> 30 µM (inactive)"}, {"smiles": "O=C(O)[C@]1(Cc2cccc(Nc3nccs3)n2)CC[C@@H](Oc2cccc(Cl)c2F)CC1", "note": "[MK-5108]", "Kd": "> 30 µM (inactive)"}]}, {"target": "T4, Serine/threonine-protein kinase D3 (Homo sapiens, UniProt O94806)", "T4 sequence (O94806 whole entry)": "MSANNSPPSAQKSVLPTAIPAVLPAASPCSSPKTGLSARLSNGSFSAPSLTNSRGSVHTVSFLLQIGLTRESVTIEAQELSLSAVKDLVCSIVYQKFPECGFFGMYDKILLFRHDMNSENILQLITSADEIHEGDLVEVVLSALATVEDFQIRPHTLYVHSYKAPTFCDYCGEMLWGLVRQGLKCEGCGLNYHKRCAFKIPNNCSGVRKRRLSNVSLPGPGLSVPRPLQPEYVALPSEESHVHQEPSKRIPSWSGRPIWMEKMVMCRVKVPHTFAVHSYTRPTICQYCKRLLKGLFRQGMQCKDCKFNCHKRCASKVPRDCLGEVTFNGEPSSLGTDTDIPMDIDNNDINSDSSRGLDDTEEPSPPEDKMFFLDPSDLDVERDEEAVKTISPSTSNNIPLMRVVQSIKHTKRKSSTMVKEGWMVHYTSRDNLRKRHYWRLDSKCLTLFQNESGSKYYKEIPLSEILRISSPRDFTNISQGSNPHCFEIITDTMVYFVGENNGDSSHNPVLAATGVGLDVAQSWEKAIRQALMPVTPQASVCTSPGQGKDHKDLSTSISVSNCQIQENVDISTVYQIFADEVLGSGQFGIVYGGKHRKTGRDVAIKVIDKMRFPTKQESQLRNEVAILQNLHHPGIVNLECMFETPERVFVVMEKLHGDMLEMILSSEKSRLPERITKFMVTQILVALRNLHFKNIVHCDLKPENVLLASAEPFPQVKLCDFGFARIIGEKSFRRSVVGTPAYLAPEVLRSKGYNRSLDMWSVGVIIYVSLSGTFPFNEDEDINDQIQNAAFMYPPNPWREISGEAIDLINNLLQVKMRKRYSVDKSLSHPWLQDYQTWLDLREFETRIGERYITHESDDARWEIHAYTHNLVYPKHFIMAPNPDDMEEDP", "values": [{"smiles": "Cn1cc(-c2ccc(F)c(C(F)(F)F)c2)nc1C1CCN(c2ncnc3[nH]ncc23)CC1", "note": "[LY-2584702]", "Kd": "> 30 µM (inactive)"}, {"smiles": "O=C(O)[C@]1(Cc2cccc(Nc3nccs3)n2)CC[C@@H](Oc2cccc(Cl)c2F)CC1", "note": "[MK-5108]", "Kd": "> 30 µM (inactive)"}]}, {"target": "Serine/threonine-protein kinase SIK3 (Homo sapiens, UniProt Q9Y2K2)", "values": [{"smiles": "Cc1cc(Nc2cc(N3CCN(C)CC3)nc(/C=C/c3ccccc3)n2)n[nH]1", "note": "[ENMD-2076]", "Kd": "> 30 µM (inactive)"}, {"smiles": "COC(=O)[C@@]1(O)C[C@H]2O[C@]1(C)n1c3ccccc3c3c4c(c5c6ccccc6n2c5c31)C(=O)NC4", "note": "[K-252A]", "Kd": "4.03 µM (active)"}, {"smiles": "Cn1cc(-c2ccc(F)c(C(F)(F)F)c2)nc1C1CCN(c2ncnc3[nH]ncc23)CC1", "note": "[LY-2584702]", "Kd": "> 30 µM (inactive)"}, {"smiles": "O=C(O)[C@]1(Cc2cccc(Nc3nccs3)n2)CC[C@@H](Oc2cccc(Cl)c2F)CC1", "note": "[MK-5108]", "Kd": "> 30 µM (inactive)"}]}, {"target": "DNA topoisomerase 2-alpha (Homo sapiens, UniProt P11388)", "sequence (P11388 whole entry)": "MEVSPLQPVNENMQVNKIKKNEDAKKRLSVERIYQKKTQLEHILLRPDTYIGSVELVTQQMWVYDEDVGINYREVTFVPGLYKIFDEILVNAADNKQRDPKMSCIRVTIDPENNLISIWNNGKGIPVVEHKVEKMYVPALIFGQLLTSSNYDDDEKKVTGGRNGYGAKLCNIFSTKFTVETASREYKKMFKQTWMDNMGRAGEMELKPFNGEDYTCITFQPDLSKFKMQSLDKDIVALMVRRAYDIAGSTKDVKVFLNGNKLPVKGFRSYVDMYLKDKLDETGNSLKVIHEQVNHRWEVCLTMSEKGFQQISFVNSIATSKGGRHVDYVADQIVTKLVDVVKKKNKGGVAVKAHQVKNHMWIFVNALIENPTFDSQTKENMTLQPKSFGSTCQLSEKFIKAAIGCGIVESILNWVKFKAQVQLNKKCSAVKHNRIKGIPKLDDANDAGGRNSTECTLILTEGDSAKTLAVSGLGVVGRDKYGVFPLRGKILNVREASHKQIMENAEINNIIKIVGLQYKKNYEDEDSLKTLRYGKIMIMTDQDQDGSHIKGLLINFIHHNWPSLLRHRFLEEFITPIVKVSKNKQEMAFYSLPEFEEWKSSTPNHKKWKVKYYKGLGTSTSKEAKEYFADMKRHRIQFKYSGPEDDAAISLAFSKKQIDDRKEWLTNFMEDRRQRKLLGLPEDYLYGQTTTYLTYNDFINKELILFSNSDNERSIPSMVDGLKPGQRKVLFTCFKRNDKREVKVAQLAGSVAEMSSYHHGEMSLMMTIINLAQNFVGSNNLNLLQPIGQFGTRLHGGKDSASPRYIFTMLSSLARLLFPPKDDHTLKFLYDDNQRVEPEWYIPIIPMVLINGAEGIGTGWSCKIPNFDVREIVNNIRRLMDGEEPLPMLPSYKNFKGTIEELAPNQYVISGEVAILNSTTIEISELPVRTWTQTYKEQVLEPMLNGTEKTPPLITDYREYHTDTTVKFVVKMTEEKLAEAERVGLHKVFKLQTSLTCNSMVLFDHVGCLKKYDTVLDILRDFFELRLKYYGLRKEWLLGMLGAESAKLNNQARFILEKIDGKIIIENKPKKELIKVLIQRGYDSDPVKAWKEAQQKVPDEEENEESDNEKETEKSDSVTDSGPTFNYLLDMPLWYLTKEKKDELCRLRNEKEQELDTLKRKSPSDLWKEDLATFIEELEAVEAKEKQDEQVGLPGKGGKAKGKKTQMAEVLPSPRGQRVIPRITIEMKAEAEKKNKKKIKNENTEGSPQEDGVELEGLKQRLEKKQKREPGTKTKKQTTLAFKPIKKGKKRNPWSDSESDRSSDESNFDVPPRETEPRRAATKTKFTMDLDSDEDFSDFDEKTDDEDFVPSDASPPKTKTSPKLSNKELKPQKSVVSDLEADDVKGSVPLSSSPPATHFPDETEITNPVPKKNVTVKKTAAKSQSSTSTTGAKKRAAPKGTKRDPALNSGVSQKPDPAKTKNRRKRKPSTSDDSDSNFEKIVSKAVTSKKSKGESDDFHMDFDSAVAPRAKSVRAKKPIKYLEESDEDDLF", "values": [{"smiles": "Cc1cc(Nc2cc(N3CCN(C)CC3)nc(/C=C/c3ccccc3)n2)n[nH]1", "note": "[ENMD-2076]", "Kd": "> 30 µM (inactive)"}, {"smiles": "COC(=O)[C@@]1(O)C[C@H]2O[C@]1(C)n1c3ccccc3c3c4c(c5c6ccccc6n2c5c31)C(=O)NC4", "note": "[K-252A]", "Kd": "> 30 µM (inactive)"}, {"smiles": "O=C(O)[C@]1(Cc2cccc(Nc3nccs3)n2)CC[C@@H](Oc2cccc(Cl)c2F)CC1", "note": "[MK-5108]", "Kd": "> 30 µM (inactive)"}]}]}
